Measurements reported in US20140121236A1, “Compositions and Methods for Treating Myotonic Dystrophy Type 1” (UNIVERSITY OF SOUTHERN CALIFORNIA, priority 2012, published 2014).

What was measured:
[1] = test system: SHARP; assay: SHARP immunofluorescence in DM1 myoblasts; type: cell-based, human; conditions: RCN-001 treatment for 4 days (not shown)
Procedure: DM1 myoblasts were then treated with 10 μM of either RCN-001 or the vehicle (DMSO) for 4 days and then examined by FISH using a Cy3 (CAG)10 probe.
CUG-RNA foci were detected by performing FISH on untreated DM1 myoblasts and DM1 myoblasts following treatment. For FISH analysis, DM1 myoblasts were plated on a 24-well clear bottom polystyrene plate with circular glass coverslips followed by treatment. Prior to FISH analysis, cells were fixed using 4% paraformaldehyde in 1×PBS for 20 min at room temperature. FISH analysis was performed using a Cy3 conjugated (CAG)10 oligonucleotide probe (Integrated DNA Technologies, Inc.) as described by Taneja et al, 1995 and Dansithong et al, 2005. CUG-RNA foci were observed as a red signal using fluorescence microscopy. Immunofluorescence was performed as described by Dansithong et al, 2008. Endogenous SHARP was detected using SHARP polyclonal antibodies from Bethyl at a dilution of 1:1000. The secondary antibodies conjugated with FITC (Invitrogen) were used at a 1:2000 dilution. Chloride channel 1 (Clcn1 a.k.a. CIC-1) was detected using CIC-1 polyclonal antibodies from Santa Cruz. The secondary antibodies conjugated with Alexa Flour 488 (Invitrogen) were used at a 1:2000 dilution. FISH analysis in mouse muscle section was carried out as described in Mancodi et al, 2000 (9).

[2] = test system: CUG foci in HSALR mice; assay: CUG foci (FISH) in muscle of treated HSALR mice; type: in vivo; conditions: 40 mg/kg i.p. each day for 7 days
Procedure: Red: CUG foci, detected with a (CAG)10Cy3 probe Blue: DAPI stain of nuclei.
(§1) Furthermore, CUG foci, abnormal RNA splicing, myotonia and reduced Clcn1 protein levels are reversed in HSA^LR mice treated with RCN-001: Age and gender matched HSA^LR mice were treated with either vehicle or 40/mgs/kg of RCN-001 injected i.p. each day for 7 days. After treatment CUG foci were examined and RNA isolated from skeletal muscle was subjected to RT-PCR analysis to examine the efficacy of RCN-001 in correcting the splice defects of Clcn1, lbd3 and Serca-1 RNAs, which are abnormally spliced in DM1 (20).
CUG-RNA foci were detected by performing FISH on untreated DM1 myoblasts and DM1 myoblasts following treatment. For FISH analysis, DM1 myoblasts were plated on a 24-well clear bottom polystyrene plate with circular glass coverslips followed by treatment. Prior to FISH analysis, cells were fixed using 4% paraformaldehyde in 1×PBS for 20 min at room temperature. […] CUG-RNA foci were observed as a red signal using fluorescence microscopy. […] Endogenous SHARP was detected using SHARP polyclonal antibodies from Bethyl at a dilution of 1:1000. […] Chloride channel 1 (Clcn1 a.k.a. CIC-1) was detected using CIC-1 polyclonal antibodies from Santa Cruz. […]

[3] = test system: Clcn1, lbd3 and Serca-1 RNA splicing in HSALR mice; assay: RT-PCR splicing analysis of skeletal muscle RNA of treated HSALR mice; type: in vivo; conditions: 40 mg/kg i.p. each day for 7 days
Description: A. Total RNA was isolated from age and gender matched wild-type mice, HSA^LR mice and HSA^LR mice treated with either saline or 40 mgs/kg of RCN-001 injected i.p. once a day for 7 days. Subsequent to treatment RNA was isolated from skeletal muscles and subjected to RT-PCR analysis using the indicated primers sets for Clcn1, Lbd3 and Serca-1 RNAs. GAPDH RNA was amplified in parallel as an internal control. The results of two experiments are shown. B. Bar graph representation of rescue achieved is shown. C. The relative levels of exon inclusion was measured by densitometry and tabulated as mean % exon inclusion +/− standard deviation.
as §1
Treatment in HSALR mice. […]
The relative band intensities were quantified by densitometry analyses and the percent of exon inclusion was calculated as [exon inclusion/(exon inclusion+exon exclusion)]×100.

[4] = test system: normal and DM1 myoblasts; assay: Off-target splicing and RNA steady-state levels (semi-quantitative RT-PCR) in myoblasts; type: cell-based, human
Description: Semi-quantitative RT-PCR was done as previously described (7,17, 23). Abbreviations: U: Untreated; V: vehicle treated; 16: treated with RCN-001.
(§2) Results for wild-type and HSA^LR mice are not shown.

[5] = test system: wild-type and HSALR mice; assay: Off-target splicing and RNA steady-state levels in mice; type: in vivo
Description: as §2

## CCCCCCc1cc2cc(-c3nnc(-c4cccc(OC)c4)o3)c(=O)oc2cc1O [RCN-001]
[1]
  SHARP mislocalization / nuclear SHARP levels in DM1 myoblast: significantly reversed SHARP mislocalization and re-established nuclear SHARP levels
[2]
  load of the CUG foci: reduced
[3]
  rescue of splice defects of Clcn1, lbd3 and Serca-1 RNAs: achieved rescue of splice defects that was comparable to results obtained with AON
[4]; normal and DM1 myoblasts (FIG. 6C)
  off target effects on steady-state levels of endogenous (CUG)6-25 repeat encoding RNAs: does not show significant off target effects
[4]; normal myoblasts (FIG. 6B)
  splice patterns of RNAs that are abnormally spliced in DM1: does not alter splice patterns
[4]; normal or DM1 myoblasts (FIG. 6A)
  splice patterns of RNAs that are normally spliced in DM1: does not alter splice patterns
[5]; wild-type and HSALR mice (not shown)
  off target effects on steady-state levels of endogenous (CUG)6-25 repeat encoding RNAs: does not show significant off target effects
[5]; wild-type mice (not shown)
  splice patterns of RNAs that are abnormally spliced in DM1: does not alter splice patterns
[5]; wild-type or HSALR mice (not shown)
  splice patterns of RNAs that are normally spliced in DM1: does not alter splice patterns
